Reference: patent publication EP4806894A1, “TNAP INHIBITORY COMPOUND AND USE THEREOF” (Rednvia Co., Ltd., priority 2023, dated 2025)
Where a name gives a salt, the structure may show the parent alone.

Legend:
TNAP = biological target: T1, TNAP (Homo sapiens, UniProt P05186); experiment: TNAP inhibitory activity, colorimetric assay (alkaline phosphatase assay kit ab83369, pNPP substrate); assay type: biochemical; conditions: TNAP enzyme, 2 hours at room temperature, absorbance 405 nm
T1 sequence (P05186 18-502 limits assumed): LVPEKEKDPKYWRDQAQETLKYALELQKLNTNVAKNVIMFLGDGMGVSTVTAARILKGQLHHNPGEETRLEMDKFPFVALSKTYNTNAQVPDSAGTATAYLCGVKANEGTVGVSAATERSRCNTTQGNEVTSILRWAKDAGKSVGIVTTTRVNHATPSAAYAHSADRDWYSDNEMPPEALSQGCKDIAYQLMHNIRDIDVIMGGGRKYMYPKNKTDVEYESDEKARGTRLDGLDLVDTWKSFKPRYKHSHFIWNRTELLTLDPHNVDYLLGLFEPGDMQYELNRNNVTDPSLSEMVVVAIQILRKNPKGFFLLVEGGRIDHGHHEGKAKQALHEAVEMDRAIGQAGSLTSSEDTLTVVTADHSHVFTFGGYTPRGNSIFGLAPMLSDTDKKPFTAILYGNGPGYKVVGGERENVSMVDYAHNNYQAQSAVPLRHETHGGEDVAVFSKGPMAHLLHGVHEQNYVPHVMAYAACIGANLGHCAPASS

saos-2 cells = experiment: Anticalcification efficacy in saos-2 cells (osteogenic medium, Alizarin Red staining); assay type: cell-based; conditions: Homo sapiens, 168 h, test compound 1 µM, 7 days osteogenic medium, Alizarin Red absorbance 540 nm, read-out: calcification inhibition
In short: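 Saos-2 cells at 80–90% confluence induced for 7 days in osteogenic medium (DMEM, 100 nM dexamethasone, 10 mM β-glycerophosphate, 0.05 mM ascorbic acid), compound (0.5, 1, 5, 10 […]) added with each medium change. Alizarin Red staining eluted with cetylpyridinium chloride, A540 read; inhibition taken against OM-only absorbance.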

SMILES	IC50 (TNAP) [nM]	inhibition at 1 µM (saos-2 cells) [%]
O=C1NCCCc2ncc(NS(=O)(=O)c3cc(Br)cc4c3OCC4)cc21 [Example 17, 5-bromo-N-(5-oxo-6,7,8,9-tetrahydro-5H-pyrido[3,2-c]azepine-3-yl)-2,3-dihydrobenzofuran-7-sulfonamide]	≥ 1000	< 0
CCOC(=O)C(C)(C)n1cc(-c2ccc(OC)c(S(=O)(=O)Nc3cnc4c(c3)C(=O)NCC4)c2)cn1 [Example 59, ethyl 2-(4-(4-methoxy-3-(N-(5-oxo-5,6,7,8-tetrahydro-1,6-naphthyridine-3-yl)sulfamoyl)phenyl)-1H-pyrazole-1-yl)-2-methylpropanoate]	100 to 1000	≥ 50
COc1ccc(Br)cc1S(=O)(=O)Nc1cnc2c(c1)CN(C(=O)CC(C)(C)C)CC2 [Example 119, 5-bromo-N-(6-(3,3-dimethylbutanoyl)-5,6,7,8-tetrahydro-1,6-naphthyridine-3-yl)-2-methoxybenzenesulfonamide]	10 to 100	≥ 50
COc1ccc(F)cc1S(=O)(=O)Nc1cnc2c(c1)C(=O)NCC2 [Example 8, 5-fluoro-2-methoxy-N-(5-oxo-5,6,7,8-tetrahydro-1,6-naphthyridine-3-yl)benzenesulfonamide]	10 to 100	≥ 50
COc1ccc(-c2cnn(CC(=O)OC(C)(C)C)c2)cc1S(=O)(=O)Nc1cnc2c(c1)C(=O)NCC2 [Example 47, tert-butyl 2-(4-(4-methoxy-3-(N-(5-oxo-5,6,7,8-tetrahydro-1,6-naphthyridine-3-yl)sulfamoyl)phenyl)-1H-pyrazole-1-yl)acetate]	100 to 1000	≥ 50
COc1ccc(-c2cnn(C3CCN(C)CC3)c2)cc1S(=O)(=O)Nc1cnc2c(c1)C(=O)NCC2 [Example 65, 2-methoxy-5-(1-(1-methylpiperidine-4-yl)-1H-pyrazole-4-yl)-N-(5-oxo-5,6,7,8-tetrahydro-1,6-naphthyridine-3-yl)benzenesulfonamide]	≥ 1000	< 0
COc1ccc(C2=CCOCC2)cc1S(=O)(=O)Nc1cnc2c(c1)C(=O)NCC2 [Example 51, 5-(3,6-dihydro-2H-pyran-4-yl)-2-methoxy-N-(5-oxo-5,6,7,8-tetrahydro-1,6-naphthyridine-3-yl)benzenesulfonamide]	100 to 1000	≥ 50
COc1ccc(Br)cc1S(=O)(=O)Nc1cnc2c(c1)C(=O)NCC2 [Example 9, 5-bromo-2-methoxy-N-(5-oxo-5,6,7,8-tetrahydro-1,6-naphthyridine-3-yl)benzenesulfonamide]	≤ 10	≥ 50
O=C1NCc2ncc(NS(=O)(=O)c3cccc4c3OCC4)cc21 [Example 18, N-(5-oxo-6,7-dihydro-5H-pyrrolo[3,4-b]pyridine-3-yl)-2,3-dihydrobenzofuran-7-sulfonamide]	≥ 1000	< 0
O=C1NCCc2ncc(NS(=O)(=O)c3ccc4c(c3)OCCO4)cc21 [Example 24, N-(5-oxo-5,6,7,8-tetrahydro-1,6-naphthyridine-3-yl)-2,3-dihydrobenzo[b][1,4]dioxine-6-sulfonamide]	≥ 1000	< 0
COc1ccc(OC)c(S(=O)(=O)Nc2cnc3c(c2)C(=O)NC3)c1 [Example 3, 2,5-dimethoxy-N-(5-oxo-6,7-dihydro-5H-pyrrolo[3,4-b]pyridine-3-yl)benzenesulfonamide]	10 to 100	≥ 50
CCOC(=O)C(C)n1cc(-c2ccc(OC)c(S(=O)(=O)Nc3cnc4c(c3)C(=O)NCC4)c2)cn1 (centres unmarked) [Example 42, ethyl 2-(4-(4-methoxy-3-(N-(5-oxo-5,6,7,8-tetrahydro-1,6-naphthyridine-3-yl)sulfamoyl)phenyl)-1H-pyrazole-1-yl)propanoate]	≤ 10	≥ 50
COc1ccc(-c2ccncc2)cc1S(=O)(=O)Nc1cnc2c(c1)C(=O)NCC2 [Example 31, 2-methoxy-N-(5-oxo-5,6,7,8-tetrahydro-1,6-naphthyridine-3-yl)-5-(pyridine-4-yl)benzenesulfonamide]	100 to 1000	≥ 50
COc1ccc(Cl)cc1S(=O)(=O)Nc1cnc2c(c1)C(=O)NCCC2 [Example 13, 5-chloro-2-methoxy-N-(5-oxo-6,7,8,9-tetrahydro-5H-pyrido[3,2-c]azepine-3-yl)benzenesulfonamide]	100 to 1000	≥ 50
O=C1NCCc2ncc(NS(=O)(=O)c3cc(F)ccc3Br)cc21 [Example 56, 2-bromo-5-fluoro-N-(5-oxo-5,6,7,8-tetrahydro-1,6-naphthyridine-3-yl)benzenesulfonamide]	100 to 1000	≥ 50
COc1ccc(OC)c(S(=O)(=O)Nc2cnc3c(c2)C(=O)NCC3)c1 [Example 7, 2,5-dimethoxy-N-(5-oxo-5,6,7,8-tetrahydro-1,6-naphthyridine-3-yl)benzenesulfonamide]	≤ 10	≥ 50

Second part, led by results:

IC50 (TNAP) [nM]	SMILES	inhibition at 1 µM (saos-2 cells) [%]
100 to 1000	COc1ccc(-c2cnn(S(C)(=O)=O)c2)cc1S(=O)(=O)Nc1cnc2c(c1)C(=O)NCC2 [Example 75, 2-methoxy-5-(1-(methylsulfonyl)-1H-pyrazole-4-yl)-N-(5-oxo-5,6,7,8-tetrahydro-1,6-naphthyridine-3-yl)benzenesulfonamide]	≥ 50
100 to 1000	COc1ccc(-c2cnn(C3COC3)c2)cc1S(=O)(=O)Nc1cnc2c(c1)C(=O)NCC2 [Example 79, 2-methoxy-5-(1-(oxetane-3-yl)-1H-pyrazole-4-yl)-N-(5-oxo-5,6,7,8-tetrahydro-1,6-naphthyridine-3-yl)benzenesulfonamide]	≥ 50
100 to 1000	COc1ccc(-c2ccc(F)nc2)cc1S(=O)(=O)Nc1cnc2c(c1)C(=O)NCC2 [Example 77, 5-(6-fluoropyridine-3-yl)-2-methoxy-N-(5-oxo-5,6,7,8-tetrahydro-1,6-naphthyridine-3-yl)benzenesulfonamide]	≥ 50
100 to 1000	COc1ccc(OC)c(S(=O)(=O)Nc2cnc3c(c2)CN(C(=O)OCC(C)(C)C)CC3)c1 [Example 100, neopentyl3-((5-methoxy-2-methoxyphenyl)sulfonamido)-7,8-dihydro-1,6-naphthyridine-6(5H)-carboxylate]	≥ 50
10 to 100	COc1ccc(Cl)cc1S(=O)(=O)Nc1cnc2c(c1)CN(C(=O)NCCF)CC2 [Example 117, 3-((5-chloro-2-methoxyphenyl)sulfonamido)-N-(2-fluoroethyl)-7,8-dihydro-1,6-naphthyridine-6(5H)-carboxamide]	≥ 50
100 to 1000	CCOC(=O)N1CCc2ncc(NS(=O)(=O)c3cc(Br)ccc3OC)cc2C1 [Example 97, ethyl3-((5-bromo-2-methoxyphenyl)sulfonamido)-7,8-dihydro-1,6-naphthyridine-6(5H)-carboxylate]	≥ 50
10 to 100	COc1ccc(Cl)cc1S(=O)(=O)Nc1cnc2c(c1)CN(C(=O)N1CCOCC1)CC2 [Example 109, 5-chloro-2-methoxy-N-(6-(morpholine-4-carbonyl)-5,6,7,8-tetrahydro-1,6-naphthyridine-3-yl)benzenesulfonamide]	≥ 50
10 to 100	COc1ccc(Br)cc1S(=O)(=O)Nc1cnc2c(c1)CN(C(=O)OCCF)CC2 [Example 102, 2-fluoroethyl3-((5-bromo-2-methoxyphenyl)sulfonamido)-7,8-dihydro-1,6-naphthyridine-6(5H)-carboxylate]	≥ 50
10 to 100	COc1ccc(OC)c(S(=O)(=O)Nc2cnc3c(c2)CNCC3)c1 [Example 94, 2,5-dimethoxy-N-(5,6,7,8-tetrahydro-1,6-naphthyridine-3-yl)benzenesulfonamide hydrochloride]	≥ 50
100 to 1000	CCCCCNC(=O)N1CCc2ncc(NS(=O)(=O)c3cc(Cl)ccc3OC)cc2C1 [Example 106, 3-((5-chloro-2-methoxyphenyl)sulfonamido)-N-pentyl-7,8-dihydro-1,6-naphthyridine-6(5H)-carboxamide]	≥ 50
100 to 1000	COc1ccc(-c2cnn(-c3ccccc3)c2)cc1S(=O)(=O)Nc1cnc2c(c1)C(=O)NCC2 [Example 124, 2-methoxy-N-(5-oxo-5,6,7,8-tetrahydro-1,6-naphthyridine-3-yl)-5-(1-phenyl-1H-pyrazole-4-yl)benzenesulfonamide]	< 0
≥ 1000	COc1ccc(-c2cnn(C(C)c3nc(-c4ccc(F)cc4)no3)c2)cc1S(=O)(=O)Nc1cnc2c(c1)C(=O)NCC2 (centres unmarked) [Example 71, 5-(1-(1-(3-(4-fluorophenyl)-1,2,4-oxadiazole-5-yl)ethyl)-1H-pyrazole-4-yl)-2-methoxy-N-(5-oxo-5,6,7,8-tetrahydro-1,6-naphthyridine-3-yl)benzenesulfonamide]	< 0
